pIC50: −log10 of the molar value.

This assay deals with T1, human kidney renin (Homo sapiens, UniProt P00797).
T1 construct: Human renin is prepared from human kidney; from tissue; host or cells: human kidney
T1 sequence (P00797 67-406): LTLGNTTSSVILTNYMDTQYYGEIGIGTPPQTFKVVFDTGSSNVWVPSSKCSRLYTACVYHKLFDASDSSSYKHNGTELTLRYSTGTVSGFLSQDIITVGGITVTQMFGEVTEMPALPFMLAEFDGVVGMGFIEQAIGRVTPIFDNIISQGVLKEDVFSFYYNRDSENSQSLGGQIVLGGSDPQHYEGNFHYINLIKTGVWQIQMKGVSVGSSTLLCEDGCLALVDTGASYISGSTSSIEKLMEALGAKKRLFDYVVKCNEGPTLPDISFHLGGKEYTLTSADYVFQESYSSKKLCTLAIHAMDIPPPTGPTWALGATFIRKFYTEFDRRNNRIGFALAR
Put plainly: Radioimmunoassay screen for renin inhibitors (angiotensin I generation, then RIA quantitation). Format: biochemical. Conditions: purified human plasma angiotensinogen substrate, maleate buffer pH 6.0, 1 hour at 37° C.; read-out: Renin Inhibition IC50 Molar Concentration. As for the experimental part: Radioimmunoassay Screen For Renin Inhibitors
The in vitro method for the screening of anti-renin compounds involves, first, angiotensin I generation, and second, the quantitation of the angiotensin I produced by radioimmunoassay.
The incubation medium consisted of 20 μl of purified human plasma angiotensinogen; (1) 10 μl of human kidney renin; (2) 5 μl of phenylmethylsulfonyl fluoride; 10 μl of disodium EDTA (10 mM); 10 μl of antirenin compound (5×10^-3 M, 5×10^-4 M, 5×10^-5 M) in dimethylformamide, or ethanol and a suitable amount of maleate buffer (77 mM, pH 6.0) to make a final volume of 500 μl . The reaction mixture is incubated for one hour at 37° C. and the enzymatic reaction is stopped by placing the tube in ice-cold water. The angiotensin I generated during the incubation is measured by a radioimmunoassay plasma renin activity kit (Clinical Assays, Inc.).
Radioimmunoassay Procedure
The incubation medium consisted of either 100 μl aliquots of the above reaction mixture or a standard amount of angiotensin I; 1000 μl of phosphate buffer (100 mM, pH 7.6) and 100 μl of (^125 I) angiotensin in a gamma-coat tube. After three hours of incubation at room temperature, the tubes are decanted, and the radioactivity of each tube is determined in a gamma counter. Duplicate determinations are performed for each incubation. The results are expressed in ng of angiotensin I generated per ml of generation medium per hour of incubation (ng/AI/ml/hr).
The results of this test on representative compounds of this invention appear in Table I, expressed as an IC50.
(1) The human plasma angiotensinogen derived from the blood of a person receiving oral contraceptive pills is purified by chromatography on a pepstatinaminohexyl-agarose column.
(2) Human renin is prepared from human kidney.
Regarding “[S-(R*,R*)]4,7-anhydro-2-[[2-[[4-(2-benzofuranyl)-1,4-dioxo-2-(phenylmethyl)butyl]amino]-3-(1H-imidazol-4-yl)-1-oxopropyl]amino]-1-cyclohexyl-1,2,5,6-tetradeoxy-L-arabino-Heptitol”, the pIC50 was 7.38.
The value for “[S-(R*,S*)[-4,7-anhydro-2-[[2-[[4-(2-benzofuranyl)-1,4-dioxo-2-(phenylmethyl)butyl]amino]-3-(1H-imidazol-4-yl)-1-oxopropyl]amino]-1-cyclohexyl-1,2,5,6-tetradeosy-L-arabino-Heptitol” was 8.82.
The value for “[S-(R*,S*)]-4,7-anhydro-1-cyclohexyl-1,2,5,6-tetradoxy-2-[[2-[[1,4-dioxo-4-phenyl-2-(phenylmethyl)butyl]amino]-4-methyl-1-oxopentyl]amino]-D-xylo-Heptitol” was 6.33.
Consider “[S-(R*,S*)]-1-cyclohexyl-1,2,4,5,6,7-hexadeoxy-2-[[2-[[1,4-dioxo-4-phenyl-2-(phenylmethyl)butyl]amino]-4-methyl-1-oxopentyl]amino]-4,7-epithio-L-arabino-Heptitol, [R (or S)]-S-oxide”, for which the pIC50 was 7.92.
The value for “[S-(R*,S*)]-4,7-anhydro-1-cyclohexyl-1,2,5,6-tetradeoxy-2-[[2-[[1,4-dioxo-2-(phenylmethyl)-4-(2-thienyl)butyl]amino]-4-methyl-1-oxo-pentyl]amino]-L-arabino-Heptitol” was 10.10; that for “[S-(R*,R*)]-4,7-anhydro-1-cyclohexyl-1,2,5,6-tetradeoxy-2-[[4-methyl-2-[[4-[3-[(methylamino)sulfonyl]phenyl]-1,4-dioxo-2-(phenylmethyl)buyhl]amino]-1-oxopentyl]amino]-L-arabino-Heptitol” was 7.15.
For “[S-(R*,S*)]-1-cyclohexyl-2-[[2-[[1,4-dioxo-4-phenyl-2-(phenylmethyl)butyl]amino]-4-methyl-1-oxopentyl]amino]-4,7-epithio-1,2,4,5,6,7-hexadeoxy-L-arabino-Heptitol, (R and S)-S-oxide”, the pIC50 was 8.08.
Consider “[S-(R*,S*)]-4,7-anhydro-1-cyclohexyl-1,2,5,6-tetradeoxy-2-[[4-methyl-2-[[4-[3-[(methylamino)sulfonyl]phenyl]-1,4-dioxo-2-(phenylmethyl)butyl]amino]-1-oxopentyl]amino]-L-arabino-Heptitol”, for which the pIC50 is 8.62.

The values above are taken from patent US5459131A, “Renin inhibitors” (American Cyanamid Company, priority 1991, dated 1995).
